Patent US3957779A, “Benzo-1,2,4-triazines” (Bayer Aktiengesellschaft, priority 1972, dated 1976)
In brackets after ≈: the same amount, converted by molar mass.

Legend:
Escherichia coli A261 = test: MIC, plate test (Table 1); format: cell-based; conditions: 37°C, 24 hours, read-out: Minimum inhibitory concentration (MIC)
Description: (§1) The minimum inhibitory concentration (MIC) was determined in the plate test on a complete nutrient base of the following composition: 10 g of proteose-peptone, 10 g of veal infusion, 2 g of dextrose, 3 g of sodium chloride, 2 g of disodium phosphate, 1 g of sodium acetate, 0.01 g of adenine sulphate, 0.01 g of guanine hydrochloride, 0.01 g of uracil, 0.01 g. of xantin, 12 g of agar-agar and 1 liter of water.
(§2) The incubation temperature was 37°C and the incubation time was 24 hours.

Escherichia coli C165 [1] = test: MIC, plate test (Table 1); format: cell-based; conditions: 37°C, 24 hours, read-out: Minimum inhibitory concentration (MIC)
Description: as §1, §2

Klebsiella 63 = test: MIC, plate test (Table 1); format: cell-based; conditions: 37°C, 24 hours, read-out: Minimum inhibitory concentration (MIC)
Description: as §1, §2

Klebsiella 8085 [2] = test: MIC, plate test (Table 1); format: cell-based; conditions: 37°C, 24 hours, read-out: Minimum inhibitory concentration (MIC)
Description: as §1, §2

Proteus vulgaris 1017 [3] = test: MIC, plate test (Table 1); format: cell-based; conditions: 37°C, 24 hours, read-out: Minimum inhibitory concentration (MIC)
Description: as §1, §2

Pseudomonas aeruginosa B [4] = test: MIC, plate test (Table 1); format: cell-based; conditions: 37°C, 24 hours, read-out: Minimum inhibitory concentration (MIC)
Description: as §1, §2

Pseudomonas aeruginosa w [5] = test: MIC, plate test (Table 1); format: cell-based; conditions: 37°C, 24 hours, read-out: Minimum inhibitory concentration (MIC)
Description: as §1, §2

Salmonella species [6] = test: MIC, plate test (Table 1); format: cell-based; conditions: 37°C, 24 hours, read-out: Minimum inhibitory concentration (MIC)
Description: as §1, §2

[7] = tested on: Staphylococcus aureus 133; test: MIC, plate test (Table 1); format: cell-based; conditions: 37°C, 24 hours, read-out: Minimum inhibitory concentration (MIC)
Description: as §1, §2

Streptococcus pyogenes = test: MIC, plate test (Table 1); format: cell-based; conditions: with serum, 37°C, 24 hours, read-out: Minimum inhibitory concentration (MIC)
Description: as §1, §2

Mycoplasma bovirhinis = test: MIC, series dilution test, PPLO-medium (Table 1); format: cell-based; conditions: 37°C, 18, 24 and 48 hours, read-out: Minimum inhibitory concentration (MIC)
Description: (§3) The mycoplasmae were tested in the series dilution test (PPLO-medium) at 37°C, with observations after 18, 24 and 48 hours.

Mycoplasma gallisepticum = test: MIC, series dilution test, PPLO-medium (Table 1); format: cell-based; conditions: Mycoplasmoides gallisepticum, 37°C, 18, 24 and 48 hours, read-out: Minimum inhibitory concentration (MIC)
Description: as §3

Mycoplasma granularum = test: MIC, series dilution test, PPLO-medium (Table 1); format: cell-based; conditions: Acholeplasma granularum, 37°C, 18, 24 and 48 hours, read-out: Minimum inhibitory concentration (MIC)
Description: as §3

[8] = tested on: Mycobacterium tuberculosis; test: MIC, series dilution test, Jenssen egg medium; format: cell-based; conditions: 37°C, read-out: minimum inhibitory concentration
Description: The compounds of Examples 12 and 13 show minimum inhibitory concentrations of 32 γ/ml of nutrient medium in the series dilution test, Jenssen egg medium, 37°C, against Mycobacterium tuberculosis.

Klebsiella 8085 [9] = test: In vivo ED50, intraperitoneal infection of white mice (Table 2); conditions: sc; Klebsiella 8085 i.p. infection; s.c. 15 minutes before infection; 50% survival at 24 hours
Escherichia coli C165 [10] = test: as above; conditions: sc; Escherichia coli C165 i.p. infection; s.c. 15 minutes before infection; 50% survival at 24 hours
Escherichia coli A 261 = test: Turbidity test in Mueller-Hinton nutrient solution; format: cell-based; conditions: 100 γ/ml, 24 hours, 37°C
Escherichia coli 14 = test: Turbidity test in Mueller-Hinton nutrient solution; format: cell-based; conditions: 100 γ/ml, 24 hours, 37°C
Escherichia coli C 165 = test: Turbidity test in Mueller-Hinton nutrient solution; format: cell-based; conditions: 100 γ/ml, 24 hours, 37°C
Proteus vulgaris 1017 [11] = test: Turbidity test in Mueller-Hinton nutrient solution; format: cell-based; conditions: 100 γ/ml, 24 hours, 37°C
Klebsiella K 10 = test: Turbidity test in Mueller-Hinton nutrient solution; format: cell-based; conditions: 100 γ/ml, 24 hours, 37°C
Klebsiella K 63 = test: Turbidity test in Mueller-Hinton nutrient solution; format: cell-based; conditions: 100 γ/ml, 24 hours, 37°C
Salmonella species [12] = test: Turbidity test in Mueller-Hinton nutrient solution; format: cell-based; conditions: 100 γ/ml, 24 hours, 37°C
Description: (§4) 100 γ/ml of the compounds according to the invention are dissolved in Mueller-Hinton nutrient solution, with addition of 0.1% of glucose. The nutrient solution contains […] microbes per ml. The mixture is incubated in glass test tubes for 24 hours at 37°C and after this time the degree of turbidity is determined.

Shigella species = test: Turbidity test in Mueller-Hinton nutrient solution; format: cell-based; conditions: 100 γ/ml, 24 hours, 37°C
Description: as §4

Enterobacter species = test: Turbidity test in Mueller-Hinton nutrient solution; format: cell-based; conditions: 100 γ/ml, 24 hours, 37°C
[13] = tested on: Neisseria catarrhalis species; test: Turbidity test in Mueller-Hinton nutrient solution; format: cell-based; conditions: 100 γ/ml, 24 hours, 37°C
[14] = tested on: Diplococcus pneumoniae species; test: Turbidity test in Mueller-Hinton nutrient solution; format: cell-based; conditions: 100 γ/ml, 24 hours, 37°C
Streptococcus pyogenes W = test: Turbidity test in Mueller-Hinton nutrient solution; format: cell-based; conditions: 100 γ/ml, 24 hours, 37°C
Enterococcus species = test: Turbidity test in Mueller-Hinton nutrient solution; format: cell-based; conditions: 100 γ/ml, 24 hours, 37°C
Lactobacillus species = test: Turbidity test in Mueller-Hinton nutrient solution; format: cell-based; conditions: 100 γ/ml, 24 hours, 37°C
Serratia species = test: Turbidity test in Mueller-Hinton nutrient solution; format: cell-based; conditions: 100 γ/ml, 24 hours, 37°C
[15] = tested on: Proteus indole-negative, species; test: Turbidity test in Mueller-Hinton nutrient solution; format: cell-based; conditions: 100 γ/ml, 24 hours, 37°C
[16] = tested on: Proteus indole-positive, species; test: Turbidity test in Mueller-Hinton nutrient solution; format: cell-based; conditions: 100 γ/ml, 24 hours, 37°C
[17] = tested on: Pasteurella pseudotuberculosis; format: cell-based; conditions: 100 γ/ml, 24 hours, 37°C
Brucella species = format: cell-based; conditions: 100 γ/ml, 24 hours, 37°C
[18] = tested on: Haemophilus influenzae 281; test: Turbidity test in Mueller-Hinton nutrient solution; format: cell-based; conditions: 100 γ/ml, 24 hours, 37°C
[19] = tested on: Bordetella bronchiseptica; test: Turbidity test in Mueller-Hinton nutrient solution; format: cell-based; conditions: 100 γ/ml, 24 hours, 37°C
Bacteroides species = test: Turbidity test in Mueller-Hinton nutrient solution; format: cell-based; conditions: 100 γ/ml, 24 hours, 37°C
[20] = tested on: Staphylococcus aureus 133; test: Turbidity test in Mueller-Hinton nutrient solution; format: cell-based; conditions: 100 γ/ml, 24 hours, 37°C
Pseudomonas aeruginosa w [21] = test: Turbidity test in Mueller-Hinton nutrient solution; format: cell-based; conditions: 100 γ/ml, 24 hours, 37°C
Pseudomonas aeruginosa B [22] = test: Turbidity test in Mueller-Hinton nutrient solution; format: cell-based; conditions: 100 γ/ml, 24 hours, 37°C
[23] = tested on: Aeromonas hydrophila species; test: Turbidity test in Mueller-Hinton nutrient solution; format: cell-based; conditions: 100 γ/ml, 24 hours, 37°C
[24] = tested on: Corynebacterium diphtheriae gravis; test: Turbidity test in Mueller-Hinton nutrient solution; format: cell-based; conditions: 100 γ/ml, 24 hours, 37°C
[25] = tested on: Corynebacterium pyogenes M; test: Turbidity test in Mueller-Hinton nutrient solution; format: cell-based; conditions: 100 γ/ml, 24 hours, 37°C
Clostridium botulinium = format: cell-based
Clostridium tetani = format: cell-based; conditions: 100 γ/ml, 24 hours, 37°C
Borrelia species = test: Turbidity test in Mueller-Hinton nutrient solution; format: cell-based; conditions: 100 γ/ml, 24 hours, 37°C

Structure (SMILES): CNc1n[n+]([O-])c2ccccc2[n+]1[O-] [Example 1, 3-(N-methylamino)-benzo-1,2,4-triazine-1,4-di-N-oxide]
- MIC (Escherichia coli A261): 8 µg/mL (≈ 41.6 µM)
- MIC (Escherichia coli C165 [1]): 8 µg/mL (≈ 41.6 µM)
- MIC (Klebsiella 63): 128 µg/mL (≈ 666 µM)
- MIC (Klebsiella 8085 [2]): 8 µg/mL (≈ 41.6 µM)
- MIC (Proteus vulgaris 1017 [3]): 128 µg/mL (≈ 666 µM)
- MIC (Pseudomonas aeruginosa B [4]): 8 µg/mL (≈ 41.6 µM)
- MIC (Pseudomonas aeruginosa w [5]): 128 µg/mL (≈ 666 µM)
- MIC (Salmonella species [6]): 8 to 16 µg/mL (≈ 41.6 to 83.3 µM)
- MIC [7]: 8 µg/mL (≈ 41.6 µM)
- MIC (Streptococcus pyogenes): 128 µg/mL (≈ 666 µM)
- MIC (Mycoplasma bovirhinis): 1 µg/mL (≈ 5.2 µM)
- MIC (Mycoplasma gallisepticum): 1 µg/mL (≈ 5.2 µM)
- MIC (Mycoplasma granularum): 1 µg/mL (≈ 5.2 µM)
- MIC [8]: 32 µg/mL (≈ 167 µM)
- ED50 (Klebsiella 8085 [9]): 25 mg/kg
- ED50 (Escherichia coli C165 [10]): 25 mg/kg

Structure (SMILES): O=C(CCl)Nc1n[n+]([O-])c2ccccc2[n+]1[O-] [Example 9, 3-(N-chloroacetylamino)-benzo-1,2,4-triazine-1,4-di-N-oxide]
- ED50 (Klebsiella 8085 [9]): 25 mg/kg

Structure (SMILES): NC(=O)Nc1n[n+]([O-])c2ccccc2[n+]1[O-] [Example 13, 1,4-dioxo-benzo-1,2,4-triazin-3-yl-urea]
- MIC [8]: 32 µg/mL (≈ 145 µM)
- turbidity after incubation (Escherichia coli A 261): remained free of turbidity
- turbidity after incubation (Escherichia coli 14): remained free of turbidity
- turbidity after incubation (Escherichia coli C 165): remained free of turbidity
- turbidity after incubation (Proteus vulgaris 1017 [11]): remained free of turbidity
- turbidity after incubation (Klebsiella K 10): remained free of turbidity
- turbidity after incubation (Klebsiella K 63): remained free of turbidity
- turbidity after incubation (Salmonella species [12]): remained free of turbidity
- turbidity after incubation (Shigella species): remained free of turbidity
- turbidity after incubation (Enterobacter species): remained free of turbidity
- turbidity after incubation [13]: remained free of turbidity
- turbidity after incubation [14]: remained free of turbidity
- turbidity after incubation (Streptococcus pyogenes W): remained free of turbidity
- turbidity after incubation (Enterococcus species): remained free of turbidity
- turbidity after incubation (Lactobacillus species): remained free of turbidity
- turbidity after incubation (Serratia species): remained free of turbidity
- turbidity after incubation [15]: remained free of turbidity
- turbidity after incubation [16]: remained free of turbidity
- turbidity after incubation [17]: remained free of turbidity
- turbidity after incubation (Brucella species): remained free of turbidity
- turbidity after incubation [18]: remained free of turbidity
- turbidity after incubation [19]: remained free of turbidity
- turbidity after incubation (Bacteroides species): remained free of turbidity
- turbidity after incubation [20]: remained free of turbidity
- turbidity after incubation (Pseudomonas aeruginosa w [21]): remained free of turbidity
- turbidity after incubation (Pseudomonas aeruginosa B [22]): remained free of turbidity
- turbidity after incubation [23]: remained free of turbidity
- turbidity after incubation [24]: remained free of turbidity
- turbidity after incubation [25]: remained free of turbidity
- turbidity after incubation (Clostridium botulinium): remained free of turbidity
- turbidity after incubation (Clostridium tetani): remained free of turbidity
- turbidity after incubation (Borrelia species): remained free of turbidity
